# Results from patent US20210038732A1, “ANTICANCER MICRORNA AND LIPID FORMULATIONS THEREOF” (INTERNA TECHNOLOGIES B.V., priority 2018, published 2021).
# Columns and labels:
# [1] = tested on: H1299; experiment: Cell viability (MTS assay or cell count); format: cell-based; conditions: 10 nM; NSCLC H1299; normalized to mock
# Method: (§1) Depending on cancer cell type 3000-6000 cells were seeded in a 96 well plate. After cells attached, they were transfected with different concentrations of miRNA-193a and viability was measured at different time points. Viability measurement was performed using CellTiter 96 AQueous One Solution Cell Proliferation Assay (Promega). 20 μL of MTS reagent was added to 100 μL of media in each well in 96-well plate and incubated for 2 hours at 37° C. Absorbance was measured at 490 nm for each sample in 96 well plate reader.
# (§2) Different biological effects of miRNA-193a-3p have been tested in various cancer cell lines (see Table 13). For this, various cells were treated with miRNA-193a at different concentrations (1, 3, 10 nM). For all experiments controls (untreated, mock and scrambled) were measured. […] Data shown in Table 13 are the results for miRNA-193a at 10 nM concentration at indicated time points. All the results have been quantified and normalized to the mock control.
# (§3) miRNA-193a treatment in various cancer cell lines decreased cell viability over time as measured by either an MTS assay or by cell count. It enhanced apoptosis induction over time as measured by a caspase 3/7 apoptosis assay. […] It is of note that due to intrinsic characteristics and gene mutation status of each cell line, performing one method to detect apoptosis is not always ideal for all cell lines.
# [2] = tested on: HCT116; experiment: Cell viability (MTS assay or cell count); format: cell-based; conditions: 10 nM; Colon HCT116; normalized to mock
# Method: as §1, §2, §3
# [3] = tested on: EMT6; experiment: Cell viability (MTS assay or cell count); format: cell-based; conditions: 10 nM; TNBC EMT6; normalized to mock
# Method: as §1, §2, §3
# [4] = tested on: H1975; experiment: Cell viability (MTS assay or cell count); format: cell-based; conditions: 10 nM; NSCLC H1975; normalized to mock
# Method: as §1, §2, §3
# [5] = tested on: Panc-1; experiment: Cell viability (MTS assay or cell count); format: cell-based; conditions: 10 nM; Pancreas Panc-1; normalized to mock
# Method: as §1, §2, §3
# [6] = tested on: genes downregulated in at least three cell lines; experiment: Annotation clustering of downregulated genes with DAVID software; set-up: species or system human
# From the text: For clustering and pathway analysis, a bigger gene set was required. […] Other clusters contained genes with roles in angiogenesis, unfolded protein response, chemotaxis, protein transport, nucleoside metabolism, glycosylation, oncogenesis, wound healing. […] These 161 genes are ERMP1, MCL1, ZDHHC18, KIAA1147, IDS, EIF4B, ETS1, TXLNA, NT5E, WSB2, PLAUR, LRRC40, PTPLB, SLC15A1, NCEH1, IL17RD, STMN1, AIMP2, PHACTR2, GALNT1, LAMC2, SCP2, SLC26A2, LUZP1, SHMT2, UBP1, PHLDA2, ST5, ENDOD1, CGNL1, MARCKSL1, RAB11FIP5, CCND1, RUSC1, FAM168B, ZC3H7B, PPTC7, SLC39A5, ACSS2, TPP1, HYOU1, DCTN5, CRKL, WDFY2, WDR82, SLC6A12, CDK6, SULF2, TWISTNB, ATP5F1, ALDH9A1, TOR4A, NET1, RSF1, NUP50, ZMAT3, AP2M1, MPP2, ITGB3, GALNT14, SLC35D1, PPARGC1A, TBL1XR1, MSANTD3, CLSTN1, PITPNB, CECR2, KIAA1644, ARHGAP29, KIAA1191, GREB1, PIK3R1, TNFRSF21, SEPN1, SYNRG, LRP4, ZNF365, CRYAA, MED21, GNAI3, ATP5SL, UBE2L6, ANKRD13A, GCH1, NIPA1, TRIM62, USP39, HEG1, DCAF7, LRRC8A, SOX5, IRF1, MORC4, UNC119B, FAF2, SLC30A1, C1QBP, ST3GAL4, TRIB2, TBC1D5, TMPPE, MAPK8, CBX1, CADM1, CCDC28A, YWHAZ, ERAP2, STON2, AP5M1, TGFB2, CYTH1, FAM20B, DPY19L1, ARHGAP19, LPAR3, LMLN, NUDT15, PLAU, VAMP8, HHAT, AGPAT1, ATP8B2, ACPL2, SCAMP4, LAT2, OSMR, NUDT21, HPRT1, STARD7, GABPA, CDC42EP2, THBS4, ATP6V1B2, PRNP, GFPT1, MAX, KRAS, CNOT6, NUDT3, RFWD3, APPL1, SLC23A2, BOD1, PDE3A, SLC30A7, CEP41, NOTCH2, RGS2, CDC42EP4, TP53INP1, SQSTM1, DDAH1, SLC35D2, FOCAD, GPATCH11, CBL, TMEM30B, HFE, PLEKHB2, ARPC5, and ABI2. Among these genes, NT5E, TNFRSF21, YWHAZ, MAPK8, PLAU, PLAUR, NOTCH2, ETS1, IL17RD, CDK6, EIF4B, and MCL1 are particularly interesting for their crucial involvement in the cell cycle pathway, in immune activation, as well as in cell movement. […] ETS1, YWHAZ, MPP2, PLAU, CDK4, CDK6, EIF4B, RAD51, CCNA2, STMN1, and DCAF7 are of particular interest for their crucial involvement in regulation of the cell cycle.
substance,measurement,setting,value
"miRNA-193a: duplex of the miRNA-193a-3p of SEQ ID NO: 218 (mimic, sense) with antisense strand SEQ ID NO: 219; naked in vitro, formulated in vivo (sense UGGGACUUUGUAGGCCAGUUTT; antisense AACUGGCCUACAAAGUCCCAGU; chemistry not given here; listed as Homo sapiens)",Viability (96 h),[1],↓↓ (Viability < 50%)
same,Viability (96 h),[2],↓↓ (Viability < 50%)
same,Viability (96 h),[3],↓↓ (Viability < 50%)
same,Viability (96 h),[4],↓↓ (Viability < 50%)
same,Viability (96 h),[5],↓↓ (Viability < 50%)
same,Enrichment score (ES),[6]; Gene cluster Angiogenesis,2.17
same,Enrichment score (ES),[6]; Gene cluster Apoptosis,2.55
same,Enrichment score (ES),[6]; Gene cluster Chemotaxis,1.66
same,Enrichment score (ES),[6]; Gene cluster Glycosylation,1.47
same,Enrichment score (ES),[6]; Gene cluster Immune activation,1.16
same,Enrichment score (ES),[6]; Gene cluster Nucleoside metabolism,1.49
same,Enrichment score (ES),[6]; Gene cluster Oncogenesis,1.37
same,Enrichment score (ES),[6]; Gene cluster Protein transport,1.51
same,Enrichment score (ES),[6]; Gene cluster Unfolded protein response,1.84
same,Enrichment score (ES),[6]; Gene cluster Wound healing,1.18
